Test results published in paper PMC11257039, “VCP activator reverses nuclear proteostasis defects and enhances TDP-43 aggregate clearance in multisystem proteinopathy models” (The Journal of Clinical Investigation, 2024).
“And” between values parts separate entries of the source, which are not always exact repeats. Identical values can stand only once.

Legend:
recombinant WT VCP [1] = molecular target: T1, recombinant WT VCP (Mus musculus, UniProt Q01853); assay: Kinase-Glo ATPase assay, recombinant WT VCP; format: biochemical; conditions: for ATP consumed: WT VCP no UN
T1 construct: in the full-length recombinant VCP; His (N); made in house; host or cells: Escherichia coli BL21-CodonPlus (DE3)-RIL
Description: (§1) Experiments with varied activator concentration and screening were measured using the Kinase-Glo Luminescent Kinase Assay (Promega). Reactions were incubated at 25°C for 1 hour then reduced to 4°C in a thermocycler consisting of 50 nM of recombinant VCP with or without 50 nM UFD1/NPLOC4 in 50 uL ATPase buffer (25 mM HEPES, pH 7.5, 100 mM NaCl, 10 mM MgCl2) at 2% DMSO with 62.5 μM ATP and a range of activator concentrations (Gibco, Sigma-Aldrich). Equal volumes of reaction and Kinase-Glo reagent were incubated for 20 minutes at room temperature in a 96 well white flat bottom plate (Corning). Luminescence was measured in a microplate reader (Spark 20M, Tecan).
(§2) Experiments with varied compound concentration were fit to a 3-parameter dose curve with asymmetric profile likelihood 95% confidence intervals in GraphPad Prism 9 (GraphPad). Experiments with varied ATP concentration were fit to a Michaelis-Menten model with asymmetric profile likelihood 95% confidence intervals. Significance was determined for experiments with fixed compound or fixed ATP concentration using a linear mixed-effects model.

WT VCP + Ufd1/Nploc4 = molecular target: T2, WT VCP + Ufd1/Nploc4 (Mus musculus, UniProt Q01853); assay: Kinase-Glo ATPase assay, WT VCP with UFD1/NPLOC4 (UN); format: biochemical; conditions: for ATP consumed: WT VCP with UN
T2 construct: in the full-length recombinant VCP; His (N); made in house; host or cells: E. coli (VCP: BL21-CodonPlus (DE3)-RIL; UFD1 and NPLOC4: E. coli (DE3), purified by the MD Anderson core)
Description: as §1, §2

recombinant WT VCP [2] = molecular target: T1, recombinant WT VCP; assay: MESG-PNP (EnzCheck) phosphate release ATPase assay, WT VCP; format: biochemical; conditions: for ATPase activity v0/ET: 25 μM compound, replicate experiments
Description: (§3) All other experiments were performed using the EnzCheck phosphatase assay kit (Molecular Probes). ATPase activity was measured in a 96-well flat bottom plate (Thermo Fisher Scientific). 50 nM VCP was incubated in 100 μL ATPase buffer with 2% DMSO with 25 μM compound and various ATP concentrations. The absorbance at 360 ± 5 nm was measured for more than 15 minutes at 25°C. Phosphate release was quantified based on a phosphate standard curve performed on the same plate. Initial enzyme velocity was determined by fitting the linear portion of the data to a linear regression model.
as §2

26S proteasome = 26S proteasome activity, Suc-LLVY-AMC fluorescence; format: biochemical, human; conditions: 25 μM compound, versus 1% DMSO
Description: 26S proteasome and substrate suc-LLVY-AMC were purchased (LifeSensors, Inc.). Fluorescence was measured in a microplate reader using a 96-well optical bottom black plate (Thermo Fisher Scientific). […] 26S proteasome was incubated in 100 μL proteasome buffer (20 mM HEPES, pH 7.5, 0.5 mM EDTA, 0.05% Triton-X) with 100 μM suc-LLVY-AMC, 1 mM ATP, and 25 μM compound or 1% DMSO. Fluorescence was measured at excitation 380 ± 10nm and emission 460 ± 10nm for more than 15 minutes at 37°C. Initial velocity was determined by fitting the linear portion of the data to a linear regression model. Significance was determined for using a linear mixed-effects model.

[3] = test system: WT HeLa cells expressing GFP-TDP-4FL; assay: Flow cytometry of GFP-TDP-4FL integrated fluorescence, WT HeLa; format: cell-based; conditions: for Integrated Fluorescence WT (Normalized to CHX): 4 μM MG132 17 h
Description: Drug treatments were performed on neurons 7 days after lentiviral transduction and 14 days after neuronal induction. HeLa cells were collected using trypsin and pelleted at 1000g for 3 minutes. Cell pellets were resuspended in colorless DMEM (Invitrogen) supplemented with 2% FBS and filtered through a BD tube with cell strainer (BD Biosciences) for flow cytometry analysis on LSR II (BD Biosciences). Data analysis was performed on FlowJo v10 software. Integrated fluorescence intensity was determined by multiplying percent positive GFP and GFP median fluorescence values.

luciferase = assay: Luciferase counter assay: Kinase-Glo with 62.5 μM ATP without recombinant VCP; format: biochemical; conditions: for measured ATP consumed (nmol) without VCP: replicate values
Description: as §1
(A-D) Measured ATP as determined by a Kinase-Glo assay of 62.5μM ATP in the presence of increasing concentrations of compound without recombinant VCP present. (for all panels: n=3 with 4 technical replicates per experiment, points are expressed as beta ± SE, linear mixed effects model, P>0.05 for each […]
(1 picture or pasted object on this page, not shown here)

A232E VCP = molecular target: T3, A232E VCP (Mus musculus, UniProt Q01853, A232E); assay: MESG-PNP ATPase assay, recombinant A232E VCP; format: biochemical; conditions: VCP Mutation A232E; replicate values
T3 construct: in the full-length recombinant VCP; His (N); made in house; host or cells: Escherichia coli BL21-CodonPlus (DE3)-RIL
Description: as §3
(§4) Figure S8. VCP activators variable effect on ATPase activity of MSP associated mutations in recombinant VCP. ATPase activity of 50 nM recombinant VCP protein was measured using an MESG-PNP assay upon treatment with 25 μM compound versus 2% DMSO control at 1mM ATP for WT (also shown in Fig. 5c), A232E, R155H, and R159H (n=3 with 3 technical replicated per experiment; points are expressed as beta ± SE, linear effects model: *P<0.05,**P<0.01; ***P<0.001; ****P<0.0001).

R155H VCP = molecular target: T4, R155H VCP (Mus musculus, UniProt Q01853, R155H); assay: MESG-PNP ATPase assay, recombinant R155H VCP; format: biochemical; conditions: VCP Mutation R155H; replicate values
T4 construct: in the full-length recombinant VCP; His (N); made in house; host or cells: Escherichia coli BL21-CodonPlus (DE3)-RIL
Description: as §3, §4

R159H VCP = molecular target: T5, R159H VCP (Mus musculus, UniProt Q01853, R159H); assay: MESG-PNP ATPase assay, recombinant R159H VCP; format: biochemical; conditions: VCP Mutation R159H; replicate values
T5 construct: in the full-length recombinant VCP; His (N); made in house; host or cells: Escherichia coli BL21-CodonPlus (DE3)-RIL
Description: as §3, §4

T2 sequence (Q01853 whole entry): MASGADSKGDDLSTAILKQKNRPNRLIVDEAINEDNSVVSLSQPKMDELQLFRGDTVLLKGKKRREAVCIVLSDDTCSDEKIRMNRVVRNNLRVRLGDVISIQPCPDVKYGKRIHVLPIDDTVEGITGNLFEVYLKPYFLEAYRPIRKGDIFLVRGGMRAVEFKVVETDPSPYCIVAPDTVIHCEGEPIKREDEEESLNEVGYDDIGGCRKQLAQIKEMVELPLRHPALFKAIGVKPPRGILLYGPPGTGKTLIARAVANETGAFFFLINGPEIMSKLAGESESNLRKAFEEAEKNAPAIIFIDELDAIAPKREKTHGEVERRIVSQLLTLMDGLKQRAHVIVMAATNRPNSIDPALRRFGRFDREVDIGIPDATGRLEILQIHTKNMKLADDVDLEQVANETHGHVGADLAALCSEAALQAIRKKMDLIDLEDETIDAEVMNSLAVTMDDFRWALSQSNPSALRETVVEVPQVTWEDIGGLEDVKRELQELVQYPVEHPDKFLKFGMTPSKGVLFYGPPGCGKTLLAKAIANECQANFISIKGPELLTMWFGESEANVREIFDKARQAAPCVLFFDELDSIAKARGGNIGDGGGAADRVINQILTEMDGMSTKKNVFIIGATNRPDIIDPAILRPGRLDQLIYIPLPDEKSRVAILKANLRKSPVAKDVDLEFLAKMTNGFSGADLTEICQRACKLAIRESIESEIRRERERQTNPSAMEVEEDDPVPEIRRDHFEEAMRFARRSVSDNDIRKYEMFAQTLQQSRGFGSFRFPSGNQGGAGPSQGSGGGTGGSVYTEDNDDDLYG
T2 sequence (Q92890 whole entry partner): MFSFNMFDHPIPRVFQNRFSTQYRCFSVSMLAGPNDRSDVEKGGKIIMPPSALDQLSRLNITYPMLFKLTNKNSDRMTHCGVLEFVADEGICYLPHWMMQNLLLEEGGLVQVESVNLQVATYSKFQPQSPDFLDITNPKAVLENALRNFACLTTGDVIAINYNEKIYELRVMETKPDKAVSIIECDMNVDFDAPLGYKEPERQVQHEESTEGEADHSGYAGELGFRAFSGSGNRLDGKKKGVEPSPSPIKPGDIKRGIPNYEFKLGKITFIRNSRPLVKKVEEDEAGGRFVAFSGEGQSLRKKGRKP
T2 sequence (Q8TAT6 whole entry partner): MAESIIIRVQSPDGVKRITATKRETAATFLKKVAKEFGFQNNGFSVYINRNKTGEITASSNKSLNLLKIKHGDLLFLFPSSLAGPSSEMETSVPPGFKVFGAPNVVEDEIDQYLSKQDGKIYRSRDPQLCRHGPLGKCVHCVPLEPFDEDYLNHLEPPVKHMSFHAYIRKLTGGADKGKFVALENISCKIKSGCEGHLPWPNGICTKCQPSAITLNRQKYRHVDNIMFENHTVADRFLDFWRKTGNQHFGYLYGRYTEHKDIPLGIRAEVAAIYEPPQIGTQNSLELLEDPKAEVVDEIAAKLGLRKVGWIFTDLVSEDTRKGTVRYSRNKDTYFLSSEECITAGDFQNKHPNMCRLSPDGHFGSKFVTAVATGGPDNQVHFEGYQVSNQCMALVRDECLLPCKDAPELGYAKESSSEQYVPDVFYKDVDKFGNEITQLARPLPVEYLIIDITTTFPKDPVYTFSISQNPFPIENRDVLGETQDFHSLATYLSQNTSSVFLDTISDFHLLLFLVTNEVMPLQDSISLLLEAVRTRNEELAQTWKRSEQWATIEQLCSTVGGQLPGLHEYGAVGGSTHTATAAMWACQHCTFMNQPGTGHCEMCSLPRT
T1 sequence (Q01853 whole entry): as the sequence (Q01853 whole entry) above
T5 sequence (Q01853 whole entry R159H): as the sequence (Q01853 whole entry) above, with R159H counted along it
T4 sequence (Q01853 whole entry R155H): as the sequence (Q01853 whole entry) above, with R155H counted along it
T3 sequence (Q01853 whole entry A232E): as the sequence (Q01853 whole entry) above, with A232E counted along it

In the case of `O=C(CSc1nc2ccccc2c(=O)n1NC(=O)c1ccccc1)c1ccc(Cl)cc1` [UP12], the EC50 (recombinant WT VCP [1]; EC50 (μM) (95% CI), WT VCP without UN, 50 nM VCP, 62.5 μM ATP, 2% DMSO) is reported as 1.57 µM, the “ATP consumed” value (recombinant WT VCP [1]; 0.20 μM compound) is reported as 0.972 nmol and 0.921 nmol and 1.113 nmol and the “ATP consumed” value (recombinant WT VCP [1]; 0.39 μM compound) is reported as 1.046 nmol and 0.999 nmol and 1.126 nmol. For the same compound, the “ATP consumed” value (recombinant WT VCP [1]; 0.78 μM compound) was 1.028 nmol and 1.027 nmol and 1.185 nmol, the “ATP consumed” value (recombinant WT VCP [1]; 1.56 μM compound) was 1.050 nmol and 1.001 nmol and 1.186 nmol and the “ATP consumed” value (recombinant WT VCP [1]; 3.13 μM compound) was 0.987 nmol and 1.173 nmol and 1.366 nmol. The “ATP consumed” value (recombinant WT VCP [1]; 6.25 μM compound) was 1.164 nmol and 1.158 nmol and 1.362 nmol, the “ATP consumed” value (recombinant WT VCP [1]; 12.5 μM compound) was 1.242 nmol and 1.397 nmol and 1.210 nmol and the “ATP consumed” value (recombinant WT VCP [1]; 25 μM compound) was 1.202 nmol and 1.262 nmol and 1.324 nmol. For the same compound, the “recombinant WT VCP ATPase activity” value (recombinant WT VCP [1]; in vitro validation of 106 screen hits) was “significantly increased”, the “increase of VCP activity” value (recombinant WT VCP [1]; maximum, WT VCP without UN) was 39% and the “change in EC50 with UN compared to without UN” value (WT VCP + Ufd1/Nploc4) was “non-significant decreases”. For the same compound, the “change in maximum percent activity with UN compared to without UN” value (WT VCP + Ufd1/Nploc4) was “significantly decreased”, the EC50 (WT VCP + Ufd1/Nploc4; WT VCP + Ufd1/Nploc4, 1:1 molar ratio) was 0.648 µM and the “ATP consumed” value (WT VCP + Ufd1/Nploc4; 0.20 μM compound) was 1.300 nmol and 1.366 nmol and 1.077 nmol. For the same compound, the “ATP consumed” value (WT VCP + Ufd1/Nploc4; 0.39 μM compound) was 1.441 nmol and 1.399 nmol and 1.156 nmol, the “ATP consumed” value (WT VCP + Ufd1/Nploc4; 0.78 μM compound) was 1.422 nmol and 1.447 nmol and 1.306 nmol and the “ATP consumed” value (WT VCP + Ufd1/Nploc4; 1.56 μM compound) was 1.523 nmol and 1.537 nmol and 1.366 nmol. For the same compound, the “ATP consumed” value (WT VCP + Ufd1/Nploc4; 3.13 μM compound) was 1.496 nmol and 1.548 nmol and 1.334 nmol, the “ATP consumed” value (WT VCP + Ufd1/Nploc4; 6.25 μM compound) was 1.632 nmol and 1.536 nmol and 1.400 nmol and the “ATP consumed” value (WT VCP + Ufd1/Nploc4; 12.5 μM compound) was 1.663 nmol and 1.623 nmol and 1.427 nmol. For the same compound, the “ATP consumed” value (WT VCP + Ufd1/Nploc4; 25 μM compound) was 1.544 nmol and 1.491 nmol and 1.364 nmol, the “kcat (nmol Pi / nmol VCP / s) (95% CI)” value (recombinant WT VCP [2]; 25 μM activator) was 0.309 (0.269, 0.356) nmol Pi / nmol VCP / s and the increase in kcat (recombinant WT VCP [2]; 25 μM activator, versus DMSO) was “about 25%”. The “ATPase activity v0/ET” value (recombinant WT VCP [2]; [ATP] 62.5 μM) was 0.164 nmol Pi / nmol VCP / s and 0.127 nmol Pi / nmol VCP / s and 0.154 nmol Pi / nmol VCP / s, the “ATPase activity v0/ET” value (recombinant WT VCP [2]; [ATP] 125 μM) was 0.234 nmol Pi / nmol VCP / s and 0.182 nmol Pi / nmol VCP / s and 0.208 nmol Pi / nmol VCP / s and the “ATPase activity v0/ET” value (recombinant WT VCP [2]; [ATP] 250 μM) was 0.282 nmol Pi / nmol VCP / s and 0.230 nmol Pi / nmol VCP / s and 0.291 nmol Pi / nmol VCP / s. The “ATPase activity v0/ET” value (recombinant WT VCP [2]; [ATP] 500 μM) was 0.289 nmol Pi / nmol VCP / s and 0.232 nmol Pi / nmol VCP / s and 0.265 nmol Pi / nmol VCP / s, the “ATPase activity v0/ET” value (recombinant WT VCP [2]; [ATP] 1000 μM) was 0.320 nmol Pi / nmol VCP / s and 0.260 nmol Pi / nmol VCP / s and 0.293 nmol Pi / nmol VCP / s and the “% activity of 26S proteasome” value (26S proteasome) was 94.3% and 79.8% and 83.9% and 107.1% and 92.8% and 109.7%. The “Integrated Fluorescence WT (Normalized to CHX)” value ([3]; then CHX with 5 μM compound 4 h) was 0.972 and 1.128 and 1.069 and 1.136 and 1.032 and 0.941, the “Integrated Fluorescence WT (Normalized to CHX)” value ([3]; then CHX with 20 μM compound 4 h) was 0.894 and 0.971 and 1.353 and 0.977 and 0.848 and 0.689 and the “clearance of GFP-TDP-4FL aggregates (integrated fluorescence)” value ([3]; MG132, then CHX with 5 or 20 μM activator) was “did not have a significant effect”. For the same compound, the “luciferase activity (measured ATP without VCP)” value (luciferase; 62.5 μM ATP, increasing concentrations of compound) was “did not inhibit luciferase activity”, the “measured ATP consumed (nmol) without VCP” value (luciferase; compound 6.25 μM) was 3.153 nmol and 3.247 nmol and 3.452 nmol and 3.556 nmol and 3.276 nmol and 3.463 nmol and 3.531 nmol and 3.381 nmol and 3.251 nmol and 3.386 nmol and 3.279 nmol and 3.064 nmol and the “measured ATP consumed (nmol) without VCP” value (luciferase; compound 12.5 μM) was 3.163 nmol and 3.366 nmol and 3.532 nmol and 3.606 nmol and 3.351 nmol and 3.662 nmol and 3.334 nmol and 3.435 nmol and 3.323 nmol and 3.733 nmol and 3.427 nmol and 3.076 nmol. For the same compound, the “measured ATP consumed (nmol) without VCP” value (luciferase; compound 25 μM) was 3.243 nmol and 3.452 nmol and 3.683 nmol and 3.709 nmol and 3.371 nmol and 3.627 nmol and 3.582 nmol and 3.248 nmol and 3.318 nmol and 3.356 nmol and 3.238 nmol and 3.225 nmol, the “measured ATP consumed (nmol) without VCP” value (luciferase; compound 50 μM) was 3.199 nmol and 3.663 nmol and 3.673 nmol and 3.419 nmol and 3.053 nmol and 3.725 nmol and 3.509 nmol and 3.086 nmol and 3.588 nmol and 3.442 nmol and 3.634 nmol and 3.113 nmol and the “measured ATP consumed (nmol) without VCP” value (luciferase; compound 100 μM) was 3.128 nmol and 3.612 nmol and 3.580 nmol and 3.474 nmol and 3.673 nmol and 3.565 nmol and 3.583 nmol and 2.931 nmol and 3.556 nmol and 3.479 nmol and 3.581 nmol and 3.246 nmol. For the same compound, the “ATPase activity, nmol Pi / nmol VCP / s” value (A232E VCP) was 1.130 nmol Pi / nmol VCP / s and 0.838 nmol Pi / nmol VCP / s and 0.963 nmol Pi / nmol VCP / s, the “ATPase activity, nmol Pi / nmol VCP / s” value (R155H VCP) was 0.592 nmol Pi / nmol VCP / s and 0.458 nmol Pi / nmol VCP / s and 0.468 nmol Pi / nmol VCP / s and the “ATPase activity, nmol Pi / nmol VCP / s” value (R159H VCP) was 0.579 nmol Pi / nmol VCP / s and 0.685 nmol Pi / nmol VCP / s and 0.536 nmol Pi / nmol VCP / s.
